Test results published in US20230045151A1, “COMPOSITIONS AND METHODS” (MONASH UNIVERSITY, priority 2020, published 2023).

Tests used:
[1] = Targeted metabolomics for PCS after L-tyrosine feeding; type: in vivo, mouse
Method: Mice were fed with L-tyrosine in drinking water (100 mg/kg/day) for 14 days, after which faeces were collected. BALF samples were collected after HDM immunization as per FIG. 1. […] Data represent samples from one experiment. All data are presented as mean values+/−SEM.
Mice received water as a control or L-tyrosine (reagent grade, ≥98% Sigma-Aldrich, St. Louis, Mo.) resuspended in drinking water under sterile conditions at the concentration of 100 mg/kg/day or 500 mg/kg/day (based on the assumption of a mouse consuming 4 ml of water daily). All mice received the treatment 2 weeks prior and throughout the experiment. […] Control mice received 200 μl of saline. For experiments employing antibiotic treatment, 3-week old mice were treated with a combination enrofloxacin (10 mg/kg/day) and amoxicillin with clavulanic acid (1 mg/kg/day) for one week, followed by one week of only amoxicillin with clavulanic acid (1 mg/kg/day). Then, mice were then put on L-tyrosine diet in drinking water for two weeks followed by HDM exposure as before. […]
25 μL of plasma samples were extracted with 100 μL of chilled methanol containing internal standard (PCS-d4 at 500 ng/ml plasma concentration), shaken on ice for 30 min and centrifuged at 4° C. for 10 min. […] Peak integration and quantitation were performed using Tracefinder 4.1 application (Thermo Scientific).

[2] = tested on: C57BL6/J mice exposed intranasally to house dust mite extract (HDM); assay: HDM animal model of allergic airway inflammation; type: in vivo, mouse
Method: Mice received water as a control or L-tyrosine (reagent grade, ≥98% Sigma-Aldrich, St. Louis, Mo.) resuspended in drinking water under sterile conditions at the concentration of 100 mg/kg/day or 500 mg/kg/day (based on the assumption of a mouse consuming 4 ml of water daily). All mice received the treatment 2 weeks prior and throughout the experiment. […] Control mice received 200 μl of saline. […]. For experiments employing antibiotic treatment, 3-week old mice were treated with a combination enrofloxacin (10 mg/kg/day) and amoxicillin with clavulanic acid (1 mg/kg/day) for one week, followed by one week of only amoxicillin with clavulanic acid (1 mg/kg/day). Then, mice were then put on L-tyrosine diet in drinking water for two weeks followed by HDM exposure as before. During this time, mice were maintained on antibiotic treatment with amoxicillin/clavulanic acid until end of experiment.
Mice were anaesthetised by the inhalation of 4% isoflurane in oxygen for 3-5 minutes. 20 μg of protein content of crude house dust mite extract (HDM) (Greer Laboratories Inc., Lenoir, N.C.) in 20 μl of sterile phosphate-buffered saline (PBS) (Gibco™) was applied intranasally on days 0, 11, 12 and 13. Mice were humanely sacrificed with the lethal dose of pentobarbital (Streuli Pharma AG, Uznach, Switzerland) on day 14.
Bronchoalveolar lavage fluid (BALF) was collected by flushing airways with 0.5 ml PBS supplemented with 0.2% bovine serum albumin (Sigma-Aldrich, St. Louis, Mo.). Total cell number was determined with Coulter Counter (IG Instrumenten-Gesellschaft AG, Basel, Switzerland) while differential cell staining performed on cytospins stained with Diff-Quik solution (Dade Behring, Siemens Healthcare Diagnostics, Deerfield, Ill.). Percentages of neutrophils, macrophages, lymphocytes and eosinophils were assessed by counting 200 cells per sample.
Concentrations of interleukin-4, -5, -13, -17 and IFN-γ in culture supernatants were analysed with mouse Ready-Set-Go!™ ELISA kits (eBioscience™, San Diego, Calif.) according to manufacturer's instructions. To measure the levels of HDM-specific IgG1 and IgE in plasma, half area 96-well plates (Corning) were coated with HDM (10 μg in PBS) overnight at 4° C., followed by the incubation of samples for 2 hours at RT, and the addition of alkaline-phophatase-conjugated goat anti-mouse IgE or IgG1 (both from SouthernBiotech, Birmingham, Ala.; diluted at 1 μg ml-1 in PBS 0.2% BSA) for 2 hours at RT. 4-nitrophenyl phosphate sodium salt hexahydrate (pNPP) (Sigma) was used as a substrate, and the colorimetric reaction was read at 405 nm on the Synergy H1 microplate reader (Biotek, Luzern, Switzerland). To measure the levels of total IgA and IgM as well as hen egg lysozyme (HEL)-specific IgA and IgM in mouse faeces, faecal pellets were homogenized in 0.8 ml cold PBS, centrifuged at 400 g for 5 minutes to remove large debris, filtered through 40 μm cell strainer and centrifuged at 8000 g for 10 minutes to pellet bacteria. The supernatant was collected and loaded for 2 hours at RT on 96-well half area plates coated a day before at 4° C. with anti-IgA (Southern Biotech; 2 μg ml-1), anti-IgM (SouthernBiotech; 2 μg ml-1) or HEL protein (Sigma-Aldrich; 10 μg/ml). This step was followed by the addition of alkalinephophatase-conjugated goat anti-mouse IgA or IgM (both at 1 μg ml-1 in PBS 0.2% BSA) for 2 hours at RT. 4-nitrophenyl phosphate sodium salt hexahydrate (pNPP) (Sigma) was used as a substrate, and the colorimetric reaction was read at 405 nm as before.
Mediastinal lymph nodes were filtered through a 40 μm cell strainer, washed with PBS supplemented with 1% fetal bovine serum and 2 mM EDTA (Invitrogen) (MACS buffer). Lungs were finely cut with scissors, digested with Collagenase IV (Gibco™) in Iscove's modified Dulbecco's medium (IMDM, Gibco™) for 50 min at 37° C. and processed as the lymph nodes.

[3] = L-tyrosine oral in drinking water

N[C@@H](Cc1ccc(O)cc1)C(=O)O [L-tyrosine]
PCS concentrations in the faeces ([1]; L-tyrosine in drinking water 100 mg/kg/day for 14 days): increase
PCS concentrations in the airways (BALF) ([1]; L-tyrosine in drinking water 100 mg/kg/day, BALF after HDM immunization): increase
FoxP3+ Treg cells in the lungs [2, 3]: not altered
numbers of T helper cells in the lungs [2, 3]: not altered
recruitment of DCs (lungs) [2, 3]: reduced
recruitment of neutrophils (BALF) [2, 3]: reduced
recruitment of eosinophils (BALF) ([2]; L-tyrosine oral in drinking water, 2 weeks prior and throughout, vs water): reduced
IL-5 concentrations in culture supernatants of mediastinal LNs ([2]; L-tyrosine oral in drinking water, not reaching statistical significance): trend towards a decrease
production of IL-13 by restimulated mediastinal LNs ([2]; L-tyrosine oral in drinking water, restimulated with HDM for 4 days): reduced
protective effect of L-tyrosine under antibiotic treatment (eosinophils, DCs, IL-5 in BALF) ([2]; L-tyrosine oral plus enrofloxacin and amoxicillin/clavulanic acid (microbiota depletion)): abrogated
CCL20 concentrations in the BALF ([2]; L-tyrosine-treated wild-type mice exposed to HDM): reduced
